The target in one experiment is PYK2 (Homo sapiens (Human), UniProt Q14289). Nature of the experiment: Biochemical assay for PYK2 activity (LANCE TR-FRET, ULight-poly Glu,Ala,Tyr substrate). Conditions: GST-tagged PYK2, 40 min reaction. As to the method: (§1) Biochemical Assay for FAK/Pyk2 Activity
(§2) GST-tagged FAK was purchased from Invitrogen (PV3832). GST-tagged PYK2 was purchased from Invitrogen (PV4567). The activity of FAK/PYK2 was measured by monitoring the phosphorylation of a fluorophore labeled ULight-poly Glu, Ala, Tyr (1:1:1) peptide substrate from Perkin Elmer (TRF0101) in the presence of ATP. The phosphorylated tyrosine residue was recognized by a LANCE Europium chelate labeled anti-phosphotyrosine (PY20) antibody from Perkin Elmer (AD0066). This brought the fluorophore and europium chelate in close proximity ([…]) that upon excitation at 320 nm by an Envision (PerkinElmer), energy can be transferred from the donor Europium chelate to the acceptor fluorophore. […] The strength of the signal was, therefore, directly proportional to the FAK/PYK2 activity.
(§3) To measure inhibitory activity of FAK/PYK2 inhibitors, compounds were first prepare as a 1 mM stock in 100% DMSO and 3-fold serial dilution was performed in a 96-well plate (Corning, 3897) to generate 12 different concentration of 100× stock. A 5 μl of 100× stock of each concentration was added to wells containing 95 μl of 1× reaction buffer (40 mM Tris, pH7.5, […], 1 mM DTT and 1 mM CHAPS) to generate 5× stock. Then 2 μl of 5× stock of each concentration was added to a 384 wells-OptiPlate (PerkinElmer, 6007299).
For PYK2, 5 μl of 2 nM PYK2 and 1.5 μl of 666 nM ULight-poly Glu, Ala, Tyr (1:1:1) peptide substrate, prepared in above reaction buffer, were added to each well. The reaction was initiated by adding 1.5 μl of 46.6 μM ATP. The reaction was allowed to proceed for 40 min before being quenched with 5 μl of 40 mM EDTA stop buffer prepared in 1×LANCE detection buffer (PerkinElmer, CR97-100).
(§4) Upon quenching of the reaction, 5 μl of 8 nM anti-phosphotyrosine antibody was added to each well and incubated for 60 minutes. The plate was measured using an Envision (PerkinElmer) based on the theory mentioned above.

The target of a further experiment is FAK (Homo sapiens (Human), UniProt Q05397). Nature of the experiment: Biochemical assay for FAK activity (LANCE TR-FRET, ULight-poly Glu,Ala,Tyr substrate). To be noted: GST-tagged FAK, 120 min reaction. As to the method:
as §1, §2, §3
For FAK, 4 μl of 2.5 nM FAK, 1 ul of 8 μg/μl BSA and 1.5 μl of 666 nM ULight-poly Glu, Ala, Tyr (1:1:1) peptide substrate, prepared in above reaction buffer, were added to each well. The reaction was initiated by adding 1.5 μl of 33.3 μM ATP. The reaction was allowed to proceed for 120 min before being quenched with 5 μl of 40 mM EDTA stop buffer prepared in 1×LANCE detection buffer (PerkinElmer, CR97-100).
as §4

SMILES strings stand for the structures.

Sequence of PYK2 (Q14289 whole entry): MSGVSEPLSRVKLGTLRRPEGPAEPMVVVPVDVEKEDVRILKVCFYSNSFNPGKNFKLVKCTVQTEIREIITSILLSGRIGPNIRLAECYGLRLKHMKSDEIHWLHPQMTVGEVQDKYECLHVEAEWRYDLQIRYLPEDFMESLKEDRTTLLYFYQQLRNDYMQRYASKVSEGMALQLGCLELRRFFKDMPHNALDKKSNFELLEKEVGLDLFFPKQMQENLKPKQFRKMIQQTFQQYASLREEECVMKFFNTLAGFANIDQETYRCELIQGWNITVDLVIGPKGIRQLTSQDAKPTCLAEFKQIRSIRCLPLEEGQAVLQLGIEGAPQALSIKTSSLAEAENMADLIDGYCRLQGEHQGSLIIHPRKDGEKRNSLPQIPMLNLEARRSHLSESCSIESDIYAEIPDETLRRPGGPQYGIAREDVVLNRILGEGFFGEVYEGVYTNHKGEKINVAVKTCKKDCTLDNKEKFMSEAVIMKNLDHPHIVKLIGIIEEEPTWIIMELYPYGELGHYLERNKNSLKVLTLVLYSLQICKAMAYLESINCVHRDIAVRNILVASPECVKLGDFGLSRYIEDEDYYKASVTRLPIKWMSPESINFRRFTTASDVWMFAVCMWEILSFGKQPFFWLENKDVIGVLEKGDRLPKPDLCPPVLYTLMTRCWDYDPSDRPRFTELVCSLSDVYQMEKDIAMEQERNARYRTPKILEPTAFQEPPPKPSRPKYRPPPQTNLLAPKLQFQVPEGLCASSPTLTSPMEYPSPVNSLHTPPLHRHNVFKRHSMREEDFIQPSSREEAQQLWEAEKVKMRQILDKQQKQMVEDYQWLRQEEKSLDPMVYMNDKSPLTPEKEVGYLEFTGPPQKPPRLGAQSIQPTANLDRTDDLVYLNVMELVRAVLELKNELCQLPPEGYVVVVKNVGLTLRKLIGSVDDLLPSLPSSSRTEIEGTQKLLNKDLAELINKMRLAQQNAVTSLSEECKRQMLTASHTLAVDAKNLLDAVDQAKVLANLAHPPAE
Sequence of FAK (Q05397 whole entry): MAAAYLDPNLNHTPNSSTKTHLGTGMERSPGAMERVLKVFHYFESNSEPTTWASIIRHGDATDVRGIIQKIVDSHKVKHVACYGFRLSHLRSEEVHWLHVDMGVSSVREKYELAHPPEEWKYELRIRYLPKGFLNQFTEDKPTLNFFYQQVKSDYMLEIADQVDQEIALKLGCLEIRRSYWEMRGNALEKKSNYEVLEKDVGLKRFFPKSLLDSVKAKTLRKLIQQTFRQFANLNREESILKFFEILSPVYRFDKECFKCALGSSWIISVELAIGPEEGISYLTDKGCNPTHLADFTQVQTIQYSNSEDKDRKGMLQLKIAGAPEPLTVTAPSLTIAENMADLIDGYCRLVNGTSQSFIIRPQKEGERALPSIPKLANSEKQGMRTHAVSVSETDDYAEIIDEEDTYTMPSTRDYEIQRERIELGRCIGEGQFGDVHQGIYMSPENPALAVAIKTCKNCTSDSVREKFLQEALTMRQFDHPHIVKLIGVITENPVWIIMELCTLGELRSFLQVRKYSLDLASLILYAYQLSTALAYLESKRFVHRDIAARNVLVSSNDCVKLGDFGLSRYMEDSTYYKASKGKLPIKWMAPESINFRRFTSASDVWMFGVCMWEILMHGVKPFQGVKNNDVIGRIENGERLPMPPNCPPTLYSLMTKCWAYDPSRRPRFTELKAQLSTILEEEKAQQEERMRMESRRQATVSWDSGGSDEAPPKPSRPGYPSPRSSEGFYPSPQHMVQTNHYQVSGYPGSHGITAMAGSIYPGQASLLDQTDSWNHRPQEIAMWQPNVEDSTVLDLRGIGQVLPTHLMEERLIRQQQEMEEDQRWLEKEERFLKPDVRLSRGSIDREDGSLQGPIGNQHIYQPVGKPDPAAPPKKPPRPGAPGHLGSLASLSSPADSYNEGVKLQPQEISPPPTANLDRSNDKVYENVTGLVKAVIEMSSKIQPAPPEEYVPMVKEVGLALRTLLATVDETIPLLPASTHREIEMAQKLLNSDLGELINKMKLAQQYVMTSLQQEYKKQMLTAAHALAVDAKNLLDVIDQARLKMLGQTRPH

For the compound `COc1cc(N2CCOCC2)ccc1Nc1nc2c(c(Nc3ccccc3S(=O)(=O)NC3CCCCC3)n1)C1(CC1)CN2` [Example 149, N-cyclohexyl-2-(2′-(2-methoxy-4-morpholinophenylamino)-6′,7′-dihydrospiro[cyclopropane-1,5′-pyrrolo[2,3-d]pyrimidine]-4′-ylamino)benzenesulfonamide], the half-maximal inhibitory concentration (IC50) against PYK2 and at FAK was less than 500 nM throughout.

With `COc1cc(-n2ccccc2=O)ccc1Nc1nc2c(c(Nc3ccccc3S(=O)(=O)NC(C)C)n1)CCN2` [Example 83, N-isopropyl-2-(2-(2-methoxy-4-(2-oxopyridin-1(2H)-yl)phenylamino)-6,7-dihydro-5H-pyrrolo[2,3-d]pyrimidin-4-ylamino)benzenesulfonamide], the half-inhibitory concentration (IC50) at PYK2 and against FAK was less than 20 nM each time.

As to `COc1cc(N2CCOCC2)ccc1Nc1nc2c(c(Nc3ccccc3C(=O)N3CCCC3)n1)C(C)(C)CN2` [Example 121, (2-(2-(2-methoxy-4-morpholinophenylamino)-5,5-dimethyl-6,7-dihydro-5H-pyrrolo[2,3-d]pyrimidin-4-ylamino)phenyl)(pyrrolidin-1-yl)methanone], the half-inhibitory concentration (IC50) against PYK2 and against FAK was less than 200 nM each time.

As for `CC(C)NS(=O)(=O)c1ccccc1Nc1nc(Nc2ccc(N3CCOCC3)cc2F)nc2c1CCN2` [Example 55, 2-(2-(2-fluoro-4-morpholinophenylamino)-6,7-dihydro-5H-pyrrolo[2,3-d]pyrimidin-4-ylamino)-N-isopropylbenzenesulfonamide], the IC50 on PYK2 and against FAK was less than 20 nM throughout.

Turning to `COc1cc(N2CCOCC2)ccc1Nc1nc2c(c(Nc3ccccc3S(=O)(=O)NC3CCC3)n1)[C@H](C)CN2` [Example 36, (S)—N-cyclobutyl-2-(2-(2-methoxy-4-morpholinophenylamino)-5-methyl-6,7-dihydro-5H-pyrrolo[2,3-d]pyrimidin-4-ylamino)benzenesulfonamide], the IC50 against PYK2 and against FAK was less than 20 nM in each case.

Regarding `CCN1C(=O)CCCc2c1ccc(Nc1nc3c(c(Nc4ccccc4C(=O)NC)n1)C(C)(C)CN3)c2OC` [Example 133, 2-(2-(1-ethyl-6-methoxy-2-oxo-2,3,4,5-tetrahydro-1H-benzo[b]azepin-7-ylamino)-5,5-dimethyl-6,7-dihydro-5H-pyrrolo[2,3-d]pyrimidin-4-ylamino)-N-methylbenzamide], the IC50 against PYK2 is less than 50 nM; on FAK it was less than 20 nM.

On to `COc1cc(N2CCOCC2)ccc1Nc1nc2c(c(Nc3ccccc3S(=O)(=O)N(C)C)n1)CCN2` [Example 38, 2-(2-(2-methoxy-4-morpholinophenylamino)-6,7-dihydro-5H-pyrrolo[2,3-d]pyrimidin-4-ylamino)-N,N-dimethylbenzenesulfonamide], for which the concentration for half-maximal inhibition (IC50) on PYK2 is less than 200 nM; against FAK, less than 50 nM.

In the case of `COc1cc(N2CCOCC2)ccc1Nc1nc2c(c(Nc3ccccc3NC(C)=O)n1)C1(CC1)CN2` [Example 155, N-(2-(2′-(2-methoxy-4-morpholinophenylamino)-6′,7′-dihydrospiro[cyclopropane-1,5′-pyrrolo[2,3-d]pyrimidine]-4′-ylamino)phenyl)acetamide], the concentration for half-maximal inhibition (IC50) against PYK2 and against FAK was less than 50 nM each time.

For `COCCNS(=O)(=O)c1ccccc1Nc1nc(Nc2ccc(N3CCOCC3)cc2OC)nc2c1C(C)(C)CN2` [Example 115, 2-(2-(2-methoxy-4-morpholinophenylamino)-5,5-dimethyl-6,7-dihydro-5H-pyrrolo[2,3-d]pyrimidin-4-ylamino)-N-(2-methoxyethyl)benzenesulfonamide], the IC50 against PYK2 and against FAK was less than 20 nM throughout.

With `COc1cc(N2CCOCC2)ccc1Nc1nc2c(c(Nc3ccccc3C(=O)N3CCCC3)n1)CCN2` [Example 3, (2-(2-(2-methoxy-4-morpholinophenylamino)-6,7-dihydro-5H-pyrrolo[2,3-d]pyrimidin-4-ylamino)phenyl)(pyrrolidin-1-yl)methanone], the 50% inhibitory concentration (IC50) on PYK2 and against FAK was greater than 1000 nM in each case.

On to `COc1cc(N2CCOCC2)ccc1Nc1nc2c(c(Nc3ccccc3S(=O)(=O)NCC3CC3)n1)C1(CC1)CN2` [Example 140, N-(cyclopropylmethyl)-2-(2′-(2-methoxy-4-morpholinophenylamino)-6′,7′-dihydrospiro[cyclopropane-1,5′-pyrrolo[2,3-d]pyrimidine]-4′-ylamino)benzenesulfonamide], for which the half-inhibitory concentration (IC50) at PYK2 and against FAK was less than 20 nM each time.

For `COc1cc(N2CCOCC2)ccc1Nc1nc2c(c(Nc3ccc(F)c(F)c3)n1)C(C)CN2` (racemic) [Example 34, (±)-N^4-(3,4-difluorophenyl)-N^2-(2-methoxy-4-morpholinophenyl)-5-methyl-6,7-dihydro-5H-pyrrolo[2,3-d]pyrimidine-2,4-diamine], the IC50 against PYK2 is less than 1000 nM; at FAK, greater than 1000 nM.

With `CCCCNS(=O)(=O)c1ccccc1Nc1nc(Nc2ccc(N3CCOCC3)cc2OC)nc2c1CCN2` [Example 39, N-butyl-2-(2-(2-methoxy-4-morpholinophenylamino)-6,7-dihydro-5H-pyrrolo[2,3-d]pyrimidin-4-ylamino)benzenesulfonamide], the results for the IC50 against PYK2 and on FAK were less than 100 nM and less than 50 nM, respectively.

Take `CNC(=O)c1ccccc1Nc1nc(Nc2ccc(N3CCOCC3)cc2OC)nc2c1C(C)(C)CN2` [Example 37, 2-(2-(2-methoxy-4-morpholinophenylamino)-5,5-dimethyl-6,7-dihydro-5H-pyrrolo[2,3-d]pyrimidin-4-ylamino)-N-methylbenzamide]: the half-inhibitory concentration (IC50) on PYK2 and against FAK was less than 20 nM each time.

As to `COc1cc(N2CCOCC2)ccc1Nc1nc2c(c(Nc3cccc(C)n3)n1)C(C)(C)CN2` [Example 123, N^2-(2-methoxy-4-morpholinophenyl)-5,5-dimethyl-N^4-(6-methylpyridin-2-yl)-6,7-dihydro-5H-pyrrolo[2,3-d]pyrimidine-2,4-diamine], the values for the IC50 on PYK2 and on FAK were less than 500 nM and less than 200 nM, respectively.

As to `COc1cc(N2CCS(=O)(=O)CC2)ccc1Nc1nc2c(c(Nc3ccccc3S(=O)(=O)NC(C)C)n1)CCN2` [Example 87, 2-(2-(4-(4-(S,S-dioxothio)piperidin-1-yl)-2-methoxyphenylamino)-6,7-dihydro-5H-pyrrolo[2,3-d]pyrimidin-4-ylamino)-N-isopropylbenzenesulfonamide], the concentration for half-maximal inhibition (IC50) against PYK2 and against FAK was less than 20 nM each time.

Take `CC(C)NS(=O)(=O)c1ccccc1Nc1nc(Nc2ccc(N3CCOCC3)cc2C(F)(F)F)nc2c1CCN2` [Example 60, N-isopropyl-2-(2-(4-morpholino-2-(trifluoromethyl)phenylamino)-6,7-dihydro-5H-pyrrolo[2,3-d]pyrimidin-4-ylamino)benzenesulfonamide]: the IC50 is greater than 1000 nM against PYK2 and less than 500 nM against FAK.

Take `CNC(=O)c1ccccc1Nc1nc(Nc2cc(C)nn2C)nc2c1CCN2` [Example 20, 2-(2-(1,3-dimethyl-1H-pyrazol-5-ylamino)-6,7-dihydro-5H-pyrrolo[2,3-d]pyrimidin-4-ylamino)-N-methylbenzamide]: the results for the half-maximal inhibitory concentration (IC50) against PYK2 and against FAK were less than 500 nM and less than 1000 nM, respectively.

For `COc1cc(N2CCOCC2)ccc1Nc1nc2c(c(Nc3cccc(C)n3)n1)C(C)CN2` (racemic) [Example 33, (±)-N^2-(2-methoxy-4-morpholinophenyl)-5-methyl-N^4-(6-methylpyridin-2-yl)-6,7-dihydro-5H-pyrrolo[2,3-d]pyrimidine-2,4-diamine], the IC50 against PYK2 is less than 1000 nM; at FAK it was less than 500 nM.

As for `CNC(=O)c1ccccc1Nc1nc(Nc2cc(OC)c(OC)c(OC)c2)nc2c1C(C)(C)CN2` [Example 130, 2-(5,5-dimethyl-2-(3,4,5-trimethoxyphenylamino)-6,7-dihydro-5H-pyrrolo[2,3-d]pyrimidin-4-ylamino)-N-methylbenzamide], the IC50 on PYK2 and at FAK was less than 200 nM in each case.

Regarding `COc1cc(N2CCOCC2)ccc1Nc1nc(NCc2ccccc2N(C)S(C)(=O)=O)c2c(n1)NCC2C` (racemic) [Example 32, (±)-N-(2-((2-(2-methoxy-4-morpholinophenylamino)-5-methyl-6,7-dihydro-5H-pyrrolo[2,3-d]pyrimidin-4-ylamino)methyl)phenyl)-N-methylmethanesulfonamide], the IC50 against PYK2 was greater than 1000 nM; against FAK it was less than 20 nM.
